In patent publication US12371454B2, “Cyclic peptide compound having Kras inhibitory action” (priority 2019, dated 2025) one finds IC50 data, which are given here for twelve compounds.

The target of assay [1] is T1, Kras and SOS1 (biotin-tagged human Kras loaded with GDP, His-tagged human SOS1) (Homo sapiens, UniProt P01116, G12D).
T1 construct: made in house; host or cells: E. coli (stated for Kras only)
In words: Protein-protein interaction inhibition between Kras and SOS1 (KrasGl2D-SOS PPI) using AlphaScreen. In kind it is binding. Conditions: AlphaScreen; biotin-tagged human Kras loaded with GDP, His-tagged human SOS1; read-out: KRAS G12D-SOS PPI IC50. In short, it runs like this: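 AlphaScreen format: Ni donor beads capture His-SOS1, streptavidin acceptor beads capture biotinylated Kras (E. coli-expressed, GDP-loaded post-purification). Excite 680 nm, read 520-620 nm.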
In general terms: In Alpha technology, singlet oxygen from a donor bead excites a nearby acceptor bead.

The subject of assay [2] is Human pancreatic cancer cell line AsPC-1. The assay can be described thus: Measurement of AsPC-1 cell growth inhibition (AsPC-1 CGI). It counts as cell-based. The note with it: 96 h. The method in brief:
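AsPC-1 cells in 15% FBS RPMI-1640 were exposed to test compound for 96 hours at 37° C, with CellTiter-Glo as endpoint.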

Each structure is given as a SMILES string. Starred links: 1 amine or outer side, 2 acyl side, 3 side chain; linkers in the order of their positions; H or OH if unused. Positions of bridges follow the written chain, without caps; N, C: chain ends. Non-standard residues stand in square brackets, D forms with d. Residues, ends and D or L forms follow the SMILES beside them. *: point of attachment. hPhe(3-Cl-4-CF3) = N[C@@H](CCc1ccc(C(F)(F)F)c(Cl)c1)C(=O)O; hPhe(3-F,4-CF3) = N[C@@H](CCc1ccc(C(F)(F)F)c(F)c1)C(=O)O; NMePhe(4-CF3) = CN[C@@H](Cc1ccc(C(F)(F)F)cc1)C(=O)O; NPrAsp = CCCN([C@@H](CC(=O)[*:3])C(=O)[*:2])[*:1]; hPhe(4-CF3) = N[C@@H](CCc1ccc(C(F)(F)F)cc1)C(=O)O; 3Oxa8azabicyclo(3.2.1)octane = C1CC2COCC1N2*; NMePhe(4-Br) = CN[C@@H](Cc1ccc(Br)cc1)C(=O)O; NMePhe(2-Cl) = CN[C@@H](Cc1ccccc1Cl)C(=O)O; NMedβ3hAla = C[C@H](CC(=O)[*:2])N(C)[*:1]; NMeGly(cPent) = CN[C@H](C(=O)O)C1CCCC1; NMeCha = CN[C@@H](CC1CCCCC1)C(=O)O; NMeChg = CN[C@H](C(=O)O)C1CCCCC1; Gly(cBu) = N[C@H](C(=O)O)C1CCC1; NMeD = CN[C@@H](CC(=O)O)C(=O)O; NMeL = CN[C@@H](CC(C)C)C(=O)O; d(β3hP) = O=C(O)C[C@H]1CCCN1; NMeNva = CCC[C@H](NC)C(=O)O; NMeV = CN[C@H](C(=O)O)C(C)C; d(β3hA) = C[C@@H](N)CC(=O)O; NMeAbu = CC[C@H](NC)C(=O)O; Morpholide = C1CN(*)CCO1; NMeA = CN[C@@H](C)C(=O)O; Piperidide = C1CCN(*)CC1; Ac5c = NC1(C(=O)O)CCCC1; Aze = O=C(O)[C@@H]1CCN1; NEtG = CCNCC(=O)O; Sar = CNCC(=O)O

T1 sequence (P01116 1-188 isoform P01116-2 G12D): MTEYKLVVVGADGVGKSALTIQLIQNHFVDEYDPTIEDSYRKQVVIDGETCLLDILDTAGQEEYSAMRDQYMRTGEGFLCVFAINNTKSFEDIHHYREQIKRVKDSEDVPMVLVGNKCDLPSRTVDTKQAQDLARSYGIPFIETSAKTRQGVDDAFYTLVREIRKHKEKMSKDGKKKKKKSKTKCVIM

Consider `CCCN1C(=O)[C@H](C2CCCC2)N(C)C(=O)C2(CCCC2)NC(=O)[C@@H]2CCCN2C(=O)[C@H](CCc2ccc(C(F)(F)F)c(Cl)c2)NC(=O)CN(C)C(=O)[C@H](CC2CCCCC2)N(C)C(=O)CN(C)C(=O)CN(C)C(=O)[C@H]([C@@H](C)CC)NC(=O)[C@H](C)N(C)C(=O)C[C@H]1C(=O)N1CCCCC1` [Compound 56] ([NMeA]I[Sar][Sar][NMeCha][Sar][hPhe(3-Cl-4-CF3)]P[Ac5c][NMeGly(cPent)][NPrAsp]-Piperidide; lactam N-11), for which the 50% inhibitory concentration (IC50) is 0.0023 µM in assay [1] and 0.02 to 0.05 µM in assay [2].
Turning to `CC[C@H](C)[C@@H]1NC(=O)[C@H](CC(C)C)N(C)C(=O)C[C@@H](C)N(C)C(=O)[C@H](C(C)C)N(C)C(=O)C2(CCCC2)NC(=O)[C@@H]2CCCN2C(=O)[C@H](CCc2ccc(C(F)(F)F)c(Cl)c2)NC(=O)CN(C)C(=O)[C@H](Cc2ccccc2Cl)N(C)C(=O)CN(C)C(=O)CN(C)C1=O` [Compound 1615] (cyclo([Ac5c][NMeV][NMedβ3hAla][NMeL]I[Sar][Sar][NMePhe(2-Cl)][Sar][hPhe(3-Cl-4-CF3)]P)), the IC50 in assay [1] is 0.04 µM; in assay [2], 0.1 to 0.5 µM.
Taken in the same sequence, the figures for `CC[C@H](C)[C@@H]1NC(=O)[C@H](CC(C)C)N(C)C(=O)C[C@H]2CCCN2C(=O)[C@H](C(C)C)N(C)C(=O)C2(CCCC2)NC(=O)[C@@H]2CCCN2C(=O)[C@H](CCc2ccc(C(F)(F)F)c(Cl)c2)NC(=O)CN(C)C(=O)[C@H](CC2CCCCC2)N(C)C(=O)[C@@H]2CCN2C(=O)[C@H](C)N(C)C1=O` [Compound 1332] (cyclo([Ac5c][NMeV][d(β3hP)][NMeL]I[NMeA][Aze][NMeCha][Sar][hPhe(3-Cl-4-CF3)]P)) were 0.023 µM and 0.1 to 0.5 µM.
As for `CC(C)C[C@H]1C(=O)N[C@@H](C2CCC2)C(=O)N(C)CC(=O)N(C)CC(=O)N(C)[C@@H](CC2CCCCC2)C(=O)N(C)CC(=O)N[C@@H](CCc2ccc(C(F)(F)F)c(Cl)c2)C(=O)N2CCC[C@H]2C(=O)NC2(CCCC2)C(=O)N(C)[C@@H](C2CCCCC2)C(=O)N(C)[C@H](C(=O)N2CCOCC2)CC(=O)N1C` [Compound 1906] ([NMeL][Gly(cBu)][Sar][Sar][NMeCha][Sar][hPhe(3-Cl-4-CF3)]P[Ac5c][NMeChg][NMeD]-Morpholide; lactam N-11), the IC50 in assay [1] is 0.00055 µM; in assay [2], 0.05 to 0.1 µM.
As for `CC[C@H](C)[C@@H]1NC(=O)[C@H](CC(C)C)N(C)C(=O)C[C@@H](C(=O)N2CCOCC2)N(C)C(=O)[C@H](C2CCCCC2)N(C)C(=O)C2(CCCC2)NC(=O)[C@@H]2CCCN2C(=O)[C@H](CCc2ccc(C(F)(F)F)c(F)c2)NC(=O)CN(C)C(=O)[C@H](CC2CCCCC2)N(C)C(=O)CN(C)C(=O)CN(C)C1=O` [Compound 1965] ([NMeL]I[Sar][Sar][NMeCha][Sar][hPhe(3-F,4-CF3)]P[Ac5c][NMeChg][NMeD]-Morpholide; lactam N-11), the IC50 in assay [1] is 0.00055 µM; in assay [2], 0.05 to 0.1 µM.
In the case of `CC[C@H](C)[C@@H]1NC(=O)[C@H](CC(C)C)N(C)C(=O)C[C@@H](C(=O)N(C)C)N(C)C(=O)[C@H](C2CCCCC2)N(C)C(=O)C2(CCCC2)NC(=O)[C@@H]2CCCN2C(=O)[C@H](CCc2ccc(C(F)(F)F)c(Cl)c2)NC(=O)CN(C)C(=O)[C@H](CC2CCCCC2)N(C)C(=O)CN(C)C(=O)CN(C)C1=O` [Compound 1729] ([NMeL]I[Sar][Sar][NMeCha][Sar][hPhe(3-Cl-4-CF3)]P[Ac5c][NMeChg][NMeD]-NMe2; lactam N-11), the half-maximal inhibitory concentration (IC50) was 0.00044 µM in assay [1] and 0.02 to 0.05 µM in assay [2].
For the compound `CC[C@H](C)[C@@H]1NC(=O)[C@H](CC(C)C)N(C)C(=O)C[C@@H](C(=O)N2C3CCC2COC3)N(C)C(=O)[C@H](C2CCCCC2)N(C)C(=O)C2(CCCC2)NC(=O)[C@@H]2CCCN2C(=O)[C@H](CCc2ccc(C(F)(F)F)cc2)NC(=O)CN(C)C(=O)[C@H](CC2CCCCC2)N(C)C(=O)CN(C)C(=O)CN(C)C1=O` [Compound 1940] ([NMeL]I[Sar][Sar][NMeCha][Sar][hPhe(4-CF3)]P[Ac5c][NMeChg][NMeD]-{3Oxa8azabicyclo(3.2.1)octane}; lactam N-11), the 50% inhibitory concentration (IC50) in assay [1] is 0.0016 µM; in assay [2], 0.1 to 0.5 µM.
Taken in the same sequence, the figures for `CCC[C@H]1C(=O)N[C@@H]([C@@H](C)CC)C(=O)N(C)CC(=O)N(C)CC(=O)N(C)[C@@H](Cc2ccc(C(F)(F)F)cc2)C(=O)N(C)CC(=O)N[C@@H](CCc2ccc(C(F)(F)F)c(Cl)c2)C(=O)N2CCC[C@H]2C(=O)NC2(CCCC2)C(=O)N(C)[C@@H](C2CCCCC2)C(=O)N(C)[C@H](C(=O)N2CCOCC2)CC(=O)N1C` [Compound 1972] ([NMeNva]I[Sar][Sar][NMePhe(4-CF3)][Sar][hPhe(3-Cl-4-CF3)]P[Ac5c][NMeChg][NMeD]-Morpholide; lactam N-11) were 0.00037 µM and 0.02 to 0.05 µM.
Take `CC[C@H](C)[C@@H]1NC(=O)[C@H](CC(C)C)N(C)C(=O)C[C@@H](C)N(C)C(=O)[C@H](C(C)C)N(C)C(=O)C2(CCCC2)NC(=O)[C@@H]2CCCN2C(=O)[C@H](CCc2ccc(C(F)(F)F)c(Cl)c2)NC(=O)CN(C)C(=O)[C@H](Cc2ccc(Br)cc2)N(C)C(=O)CN(C)C(=O)CN(C)C1=O` [Compound 1590] (cyclo([Ac5c][NMeV][NMedβ3hAla][NMeL]I[Sar][Sar][NMePhe(4-Br)][Sar][hPhe(3-Cl-4-CF3)]P)): the values for the IC50 in assay [1] and in assay [2] were 0.0032 µM and 0.05 to 0.1 µM, respectively.
With `CC[C@H](C)[C@@H]1NC(=O)[C@H](CC)N(C)C(=O)C[C@@H](C(=O)N2C3CCC2COC3)N(C)C(=O)[C@H](C2CCCCC2)N(C)C(=O)C2(CCCC2)NC(=O)[C@@H]2CCCN2C(=O)[C@H](CCc2ccc(C(F)(F)F)c(Cl)c2)NC(=O)CN(C)C(=O)[C@H](Cc2ccc(C(F)(F)F)cc2)N(C)C(=O)CN(C)C(=O)CN(C)C1=O` [Compound 1993] ([NMeAbu]I[Sar][Sar][NMePhe(4-CF3)][Sar][hPhe(3-Cl-4-CF3)]P[Ac5c][NMeChg][NMeD]-{3Oxa8azabicyclo(3.2.1)octane}; lactam N-11), the IC50 in assay [1] is 0.00064 µM; in assay [2], 0.05 to 0.1 µM.
Consider `CC[C@H](C)[C@@H]1NC(=O)[C@H](CC(C)C)N(C)C(=O)C[C@@H](C(=O)N2CCCCC2)N(C)C(=O)[C@H](C2CCCCC2)N(C)C(=O)C2(CCCC2)NC(=O)[C@@H]2CCCN2C(=O)[C@H](CCc2ccc(C(F)(F)F)c(Cl)c2)NC(=O)CN(CC)C(=O)[C@H](CC2CCCCC2)N(C)C(=O)CN(C)C(=O)CN(C)C1=O` [Compound 1203] ([NMeL]I[Sar][Sar][NMeCha][NEtG][hPhe(3-Cl-4-CF3)]P[Ac5c][NMeChg][NMeD]-Piperidide; lactam N-11), for which the IC50 in assay [1] is 0.0021 µM; in assay [2] it was 0.1 to 0.5 µM.
Regarding `CC[C@H](C)[C@@H]1NC(=O)[C@H](CC(C)C)N(C)C(=O)C[C@@H](C)NC(=O)[C@H](C2CCCC2)N(C)C(=O)C2(CCCC2)NC(=O)[C@@H]2CCCN2C(=O)[C@H](CCc2ccc(C(F)(F)F)c(Cl)c2)NC(=O)CN(C)C(=O)[C@H](Cc2ccc(C(F)(F)F)cc2)N(C)C(=O)CN(C)C(=O)CN(C)C1=O` [Compound 1524] (cyclo([Ac5c][NMeGly(cPent)][d(β3hA)][NMeL]I[Sar][Sar][NMePhe(4-CF3)][Sar][hPhe(3-Cl-4-CF3)]P)), the IC50 in assay [1] is 0.0019 µM; in assay [2], 0.05 to 0.1 µM.

Broadly, the IC50 is the concentration that inhibits the measured activity by half.
